Experiments:
Type in all cases: cell-based
human TLR8 = molecular target: T1, human TLR8 (Homo sapiens, UniProt Q9NR97); test: TLR8 inhibition reporter assay (HEK-Blue cells, SEAP reporter, R848 stimulation); conditions: HEK-Blue cells overexpressing human TLR8, SEAP reporter, R848 15.9 μM
T1 construct: host or cells: HEK-Blue cells (HEK293-derived reporter line)
T1 sequence (Q9NR97 27-1041): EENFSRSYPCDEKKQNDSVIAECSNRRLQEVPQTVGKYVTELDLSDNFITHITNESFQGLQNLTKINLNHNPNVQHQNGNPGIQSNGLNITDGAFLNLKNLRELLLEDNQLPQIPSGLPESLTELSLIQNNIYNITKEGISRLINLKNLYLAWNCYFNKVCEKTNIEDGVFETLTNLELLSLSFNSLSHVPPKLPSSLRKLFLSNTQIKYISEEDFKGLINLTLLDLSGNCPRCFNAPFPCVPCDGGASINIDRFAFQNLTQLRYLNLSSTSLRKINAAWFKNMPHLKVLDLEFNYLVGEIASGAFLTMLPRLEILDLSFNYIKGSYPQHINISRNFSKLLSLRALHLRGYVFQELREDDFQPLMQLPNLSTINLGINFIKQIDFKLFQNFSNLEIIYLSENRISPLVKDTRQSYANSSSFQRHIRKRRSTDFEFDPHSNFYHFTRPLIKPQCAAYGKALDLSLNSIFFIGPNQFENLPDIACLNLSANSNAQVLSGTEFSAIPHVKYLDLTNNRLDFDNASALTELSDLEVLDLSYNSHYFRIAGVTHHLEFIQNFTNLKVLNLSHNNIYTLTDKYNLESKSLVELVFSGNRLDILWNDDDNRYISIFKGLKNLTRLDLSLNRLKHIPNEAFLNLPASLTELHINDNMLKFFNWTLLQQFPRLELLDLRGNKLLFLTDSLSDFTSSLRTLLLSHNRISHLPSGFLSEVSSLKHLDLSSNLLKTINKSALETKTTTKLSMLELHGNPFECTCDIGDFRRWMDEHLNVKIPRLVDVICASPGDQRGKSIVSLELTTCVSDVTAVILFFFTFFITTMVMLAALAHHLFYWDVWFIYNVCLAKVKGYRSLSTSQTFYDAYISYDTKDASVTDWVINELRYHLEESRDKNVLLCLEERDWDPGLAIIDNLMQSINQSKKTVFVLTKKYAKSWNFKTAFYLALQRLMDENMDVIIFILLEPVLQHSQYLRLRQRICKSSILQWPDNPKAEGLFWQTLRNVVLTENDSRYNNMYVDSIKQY
Method in brief: (§1)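 Read-out is SEAP activity in HEK-Blue detection medium after 22 h at 37 °C, converted to percent inhibition against agonist-plus-DMSO and reference-inhibitor controls. Cells saw compound (0.05 nM–50 μM, 30 min, room temperature) before gardiquimod 7.5 μM, R848 15.9 μM or ODN2006 5 nM for TLR7, TLR8 and TLR9, respectively.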

human TLR7 = molecular target: T2, human TLR7 (Homo sapiens, UniProt Q9NYK1); test: TLR7 inhibition reporter assay (HEK-Blue cells, SEAP reporter, gardiquimod stimulation); conditions: HEK-Blue cells overexpressing human TLR7, SEAP reporter, gardiquimod 7.5 μM
T2 construct: host or cells: HEK-Blue cells (HEK293-derived reporter line)
T2 sequence (Q9NYK1 27-1049): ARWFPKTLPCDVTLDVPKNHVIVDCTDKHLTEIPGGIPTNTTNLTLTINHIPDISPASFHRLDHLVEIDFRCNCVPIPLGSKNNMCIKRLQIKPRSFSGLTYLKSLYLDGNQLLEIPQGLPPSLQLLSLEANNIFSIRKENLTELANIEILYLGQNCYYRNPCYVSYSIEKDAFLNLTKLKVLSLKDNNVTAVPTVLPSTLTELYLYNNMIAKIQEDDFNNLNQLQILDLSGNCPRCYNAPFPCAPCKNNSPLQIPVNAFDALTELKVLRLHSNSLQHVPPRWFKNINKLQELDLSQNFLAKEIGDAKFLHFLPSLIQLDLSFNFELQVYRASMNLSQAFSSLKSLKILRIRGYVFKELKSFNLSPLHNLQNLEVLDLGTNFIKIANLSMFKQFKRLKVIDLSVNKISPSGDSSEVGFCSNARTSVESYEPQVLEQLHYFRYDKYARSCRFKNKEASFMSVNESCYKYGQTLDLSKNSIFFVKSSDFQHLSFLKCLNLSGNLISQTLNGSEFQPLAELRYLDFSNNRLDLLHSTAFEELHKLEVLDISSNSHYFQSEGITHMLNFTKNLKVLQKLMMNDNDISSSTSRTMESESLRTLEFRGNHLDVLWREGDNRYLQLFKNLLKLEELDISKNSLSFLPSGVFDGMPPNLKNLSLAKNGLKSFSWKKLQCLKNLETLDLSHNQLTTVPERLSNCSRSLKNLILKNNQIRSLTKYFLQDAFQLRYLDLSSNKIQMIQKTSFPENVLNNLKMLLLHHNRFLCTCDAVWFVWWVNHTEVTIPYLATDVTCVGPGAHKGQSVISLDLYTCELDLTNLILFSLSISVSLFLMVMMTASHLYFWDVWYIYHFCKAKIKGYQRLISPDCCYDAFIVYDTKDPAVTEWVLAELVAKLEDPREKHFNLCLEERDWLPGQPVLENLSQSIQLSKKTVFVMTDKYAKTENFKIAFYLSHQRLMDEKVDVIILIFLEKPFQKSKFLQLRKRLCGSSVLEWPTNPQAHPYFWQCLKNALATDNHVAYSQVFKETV
Method in brief: as §1

human TLR9 = molecular target: T3, human TLR9 (Homo sapiens, UniProt Q9NR96); test: TLR9 inhibition reporter assay (HEK-Blue cells, SEAP reporter, ODN2006 stimulation); conditions: HEK-Blue cells overexpressing human TLR9, SEAP reporter, ODN2006 5 nM
T3 construct: host or cells: HEK-Blue cells (HEK293-derived reporter line)
T3 sequence (Q9NR96 26-1032): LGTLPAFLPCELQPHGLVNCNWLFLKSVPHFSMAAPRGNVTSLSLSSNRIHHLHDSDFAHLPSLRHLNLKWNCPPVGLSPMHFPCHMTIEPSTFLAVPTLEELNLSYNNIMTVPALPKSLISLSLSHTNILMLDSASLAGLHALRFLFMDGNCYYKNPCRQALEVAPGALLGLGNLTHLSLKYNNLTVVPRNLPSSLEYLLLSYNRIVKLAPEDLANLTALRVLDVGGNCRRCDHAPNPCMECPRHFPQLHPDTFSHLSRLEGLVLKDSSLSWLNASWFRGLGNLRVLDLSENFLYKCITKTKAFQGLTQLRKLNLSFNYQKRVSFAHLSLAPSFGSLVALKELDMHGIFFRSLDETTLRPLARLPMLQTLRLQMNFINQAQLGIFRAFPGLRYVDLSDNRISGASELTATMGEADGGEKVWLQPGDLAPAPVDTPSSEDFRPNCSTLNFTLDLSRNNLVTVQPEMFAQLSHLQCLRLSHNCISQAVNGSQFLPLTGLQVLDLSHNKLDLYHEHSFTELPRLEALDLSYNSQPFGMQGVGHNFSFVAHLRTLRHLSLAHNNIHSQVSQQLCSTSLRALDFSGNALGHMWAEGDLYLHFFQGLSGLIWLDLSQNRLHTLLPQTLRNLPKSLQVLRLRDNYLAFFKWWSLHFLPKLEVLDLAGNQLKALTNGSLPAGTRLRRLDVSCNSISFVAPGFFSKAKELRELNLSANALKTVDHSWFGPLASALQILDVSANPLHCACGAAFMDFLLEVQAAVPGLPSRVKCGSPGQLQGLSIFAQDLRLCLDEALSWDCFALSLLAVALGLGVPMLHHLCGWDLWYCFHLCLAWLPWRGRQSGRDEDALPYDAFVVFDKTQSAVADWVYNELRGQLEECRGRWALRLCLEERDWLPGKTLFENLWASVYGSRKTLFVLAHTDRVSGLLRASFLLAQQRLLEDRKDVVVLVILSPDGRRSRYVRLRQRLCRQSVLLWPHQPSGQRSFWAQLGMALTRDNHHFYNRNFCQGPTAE
Method in brief: as §1

Row | IC50 (human TLR8) [nM] | IC50 (human TLR7) [nM] | IC50 (human TLR9) [nM] | Structure (SMILES)
1 | < 100 | < 100 | 1000 to 50000 | Cc1cnc2[nH]ccc2c1-c1[nH]c2ccc(C3CCNCC3)cc2c1C(C)C [Example 247, 4-(3-isopropyl-5-(piperidin-4-yl)-1H-indol-2-yl)-5-methyl-1H-pyrrolo[2,3-b]pyridine]
2 | > 3130 | > 3130 | 1000 to 50000 | Cc1cc2cc(-c3[nH]c4ccc(C5CCN(C6COC6)CC5)cc4c3C(C)C)cc(CC(C)C)n2n1 [Example 716, 7-isobutyl-5-(3-isopropyl-5-(1-(oxetan-3-yl)piperidin-4-yl)-1H-indol-2-yl)-2-methylpyrazolo[1,5-a]pyridine]
3 | 100 to 1000 | < 100 | 1000 to 50000 | CNC(=O)CN1CCC(c2ccc3[nH]c(-c4cc(C)c5oc(C)nc5c4)c(C(C)C)c3c2)CC1 [Example 339, 2-(4-(2-(2,7-dimethylbenzo[d]oxazol-5-yl)-3-isopropyl-1H-indol-5-yl)piperidin-1-yl)-N-methylacetamide]
4 | < 100 | < 100 | < 100 | Cc1cc2nccn2cc1-c1[nH]c2ccc(C3CCN(C4CCN(C(C)C)CC4)CC3)cc2c1C(C)C [Example 841, 6-(3-isopropyl-5-(1′-isopropyl-[1,4′-bipiperidin]-4-yl)-1H-indol-2-yl)-7-methylimidazo[1,2-a]pyridine]
5 | 1000 to 50000 | 100 to 1000 | 1000 to 50000 | CC(C)c1c(-c2ccc3c(O)noc3c2)[nH]c2ccc(C3CCNCC3)cc12 [Example 5, 6-(3-isopropyl-5-(piperidin-4-yl)-1H-indol-2-yl)benzo[d]isoxazol-3-ol]
6 | < 100 | 1000 to 50000 | 100 to 1000 | CC(C)c1c(-c2ccnc3[nH]ncc23)[nH]c2ccc(C3CCN(C4CCCNCC4)CC3)cc12 (stereo not drawn) [Example 828, 4-(5-(1-(azepan-4-yl)piperidin-4-yl)-3-isopropyl-1H-indol-2-yl)-1H-pyrazolo[3,4-b]pyridine]
7 | 100 to 1000 | 100 to 1000 | 1000 to 50000 | Cc1cc(-c2[nH]c3ccc(C4CCN(C5COC5)CC4)cc3c2C(C)C)cc2cncn12 [Example 724, 7-(3-isopropyl-5-(1-(oxetan-3-yl)piperidin-4-yl)-1H-indol-2-yl)-5-methylimidazo[1,5-a]pyridine]
8 | < 100 | 100 to 1000 | 1000 to 50000 | CNC(=O)CN1CCC(c2ccc3[nH]c(-c4ccnc5[nH]ncc45)c(CC(F)F)c3c2)CC1 [Example 387, 2-(4-(3-(2,2-difluoroethyl)-2-(1H-pyrazolo[3,4-b]pyridin-4-yl)-1H-indol-5-yl)piperidin-1-yl)-N-methylacetamide]
9 | 100 to 1000 | 100 to 1000 | 1000 to 50000 | CC(C)c1c(-c2ccc3ncc(C#N)n3c2)[nH]c2ccc(C3CCNCC3)cc12 [Example 119, 6-(3-isopropyl-5-(piperidin-4-yl)-1H-indol-2-yl)imidazo[1,2-a]pyridine-3-carbonitrile]
10 | 100 to 1000 | 100 to 1000 | 100 to 1000 | CCc1c(-c2ccnc3[nH]ncc23)[nH]c2ccc(C3CCN(Cc4[nH]cnc4C)CC3)cc12 [Example 916, 4-(3-ethyl-5-(1-((4-methyl-1H-imidazol-5-yl)methyl)piperidin-4-yl)-1H-indol-2-yl)-1H-pyrazolo[3,4-b]pyridine]
11 | < 100 | 100 to 1000 | 100 to 1000 | CN(C)CC(=O)N1CCC(c2ccc3[nH]c(-c4ccnc5[nH]ncc45)c(CC(F)F)c3c2)CC1 [Example 517, 1-(4-(3-(2,2-difluoroethyl)-2-(1H-pyrazolo[3,4-b]pyridin-4-yl)-1H-indol-5-yl)piperidin-1-yl)-2-(dimethylamino)ethan-1-one]
12 | 100 to 1000 | < 100 | 1000 to 50000 | CNC(=O)CN1CCC(c2ccc3[nH]c(-c4cc(C)c5nccnc5c4)c(C(C)C)c3c2)CC1 [Example 394, 2-(4-(3-isopropyl-2-(8-methylquinoxalin-6-yl)-1H-indol-5-yl)piperidin-1-yl)-N-methylacetamide]
13 | < 100 | < 100 | 100 to 1000 | CC(C)c1c(-c2cc(Cl)cc3nccn23)[nH]c2ccc(C3CCNCC3)cc12 [Example 127, 7-chloro-5-(3-isopropyl-5-(piperidin-4-yl)-1H-indol-2-yl)imidazo[1,2-a]pyridine]
14 | < 100 | < 100 | 1000 to 50000 | Cc1cc(-c2[nH]c3ccc(C4CCN(CC(C)(C)O)CC4)cc3c2C(C)C)cc2cccnc12 [Example 771, 1-(4-(3-isopropyl-2-(8-methylquinolin-6-yl)-1H-indol-5-yl)piperidin-1-yl)-2-methylpropan-2-ol]
15 | 100 to 1000 | < 100 | 100 to 1000 | Cc1cn2cc(-c3[nH]c4ccc(C5CCN(C6COC6)CC5)cc4c3C(C)C)cc(C)c2n1 [Example 717, 6-(3-isopropyl-5-(1-(oxetan-3-yl)piperidin-4-yl)-1H-indol-2-yl)-2,8-dimethylimidazo[1,2-a]pyridine]

From patent publication US11739098B2 (BRISTOL-MYERS SQUIBB COMPANY, priority 2017, dated 2023)
